{"source": "patent US4992461A", "about": "“N-azabicyclo(3.3.0)octane amides of aromatic acids, compositions, and methods of use thereof” (G. D. Searle & Co., priority 1989, dated 1991)", "key": {"beagle dogs": {"test_system": "beagle dogs", "test": "Antiemetic activity against cisplatin in beagle dogs", "assay_type": "in vivo", "conditions": "cisplatin 3 mg/kg i.v., 5 hours", "description": "Antiemetic activity of test compound against cisplatin was determined in beagle dogs. Dogs are pretreated I.V. with a test compound dissolved in DMSO thirty minutes before administration of cisplatin 3 mg/kg.i.v. with a second dose of compounds given i.v. two hours after cisplatin administration. Emetic episodes are counted for 5 hours following cisplatin administration.\nPer cent inhibition of emesis for each animal is determined by the following formula: [formula] A mean per cent inhibition of emesis is determined for at least 4 dogs."}, "rats": {"test_system": "rats", "test": "Rat gastric emptying of a test meal", "assay_type": "in vivo, Male Charles River Rats, Crl: COBS, CD (SD) BR Strain", "conditions": "30 min before test meal, 60 min after meal", "description": "A test meal for measuring gastric emptying in rats was prepared. Ten grams of methylcellulose (2% solution=15 centipoises; Aldrich Chemical Company, Milwaukee, Wis.) was added to 200 ml of cold water and mixed at 20,000 rpm in a Waring blender to insure dispersion and hydration of the methylcellulose. In addition, two beef bouillon cubes (Wyler's, Columbus, Ohio) dissolved in 100 ml of warm water was added to the mixture, followed by 16 g of casein (Hammersten, Schwartz/Mann, Orangeburg, N.Y.), 8 g of powdered confectioners sugar and 8 g of cornstarch. The ingredients were mixed for two minutes at 20,000 rpm and the resultant test meal was refrigerated for 48 hours to allow trapped air to escape.\nMale Charles River Rats, Crl: COBS, CD (SD) BR Strain, 180-200 g body weight, were used in groups of six animals. The animals were food deprived for 24 hours prior to the experiment with access to water ad libitum. The compounds to be evaluated were prepared in a 0.5% aqueous methylcellulose solution. If insoluble, the mixture was homogenized for two minutes at 5500 rpm using a Try-R-Stir-R. The compounds were injected intraperitoneally at a volume of 5 ml/kg, 30 minutes before the test meal, (3.0 ml/rat i.g.). Control animals received only the vehicle. Sixty minutes after the test meal, the rats were sacrificed by cervical dislocation. The stomachs were removed intact and weighed. The stomachs were kept opened, gently rinsed with tap water, blotted dry with paper towelling, and the empty stomach weighed. The difference between the weight of the full and empty stomach is indicative of the amount of meal remaining in the stomach. The amount of meal remaining in the stomach was subtracted from the weight of 3 ml of the test meal to determine the amount of food emptied from the stomach during the test. Weight of the test meal was determined by weighing three samples (3 ml) at the beginning and three samples at the end of each experiment and calculating the mean. The mean and standard error of the amount of meal emptied were calculated."}, "gastric antrum": {"test_system": "gastric antrum", "test": "Antral motility in conscious fasted dogs", "assay_type": "in vivo, Mongrel dogs", "conditions": "60 min after injection relative to Phase III of MMC", "description": "This contractile activity is thought to enhance gastric emptying by more rapidly reducing food particle size for passage through the pylorus.\nMongrel dogs of either sex were surgically implanted with strain gauge force transducers on the gastric antrum at 6 cm, 4 cm and 2 cm from the gastroduodenal junction. The dogs were allowed two weeks to recover and were trained to stand quietly in Pavlov slings.\nDogs were fasted for 18 to 24 hours prior to each experiment to record a pattern of antral contractile activity characteristic of the fasted state called the Migrating Motor Complex (MMC). The period of the MMC cycle is approximately 90 to 120 minutes and consists of 45 to 60 minutes of motor quiescence (Phase I) 30 to 45 minutes of intermittent activity (Phase II) and 10 to 15 minutes of intense contractile activity (Phase III). A control MMC period is recorded prior to compound administration to obtain the length of the quiescent Phase I period. Compound is given intravenously at the end of Phase III of the control MMC cycle and a subsequent Phase I period is examined for the ability of the compound to produce contractions. A response index is calculated as the mean 10 minute motility index for 60 minutes following injection of test compound divided by the 10 minute motility index obtained for the previous Phase III period of the MMC. The response index represents an estimate of the fraction of maximal antral motor activity produced by the compound."}, "5-HT3": {"test_system": "5-HT3", "test": "Bezold-Jarisch Reflex test (5-HT induced bradycardia in pentobarbital anesthetized mice)", "assay_type": "in vivo", "conditions": "5-HT 0.25 mg/kg i.v. induced bradycardia, 30 min", "description": "5-HT3 antagonism can be determined for a compound by subjecting the compound to a Bezold-Jarisch Reflex test which is described and reported by Saxena, P.R., and Lawang, A.; Arch. Int.\nThe test compound is administered i.p. (mg/kg) to a group of 3 mice. Thirty minutes later a 5-HT (0.25 mg/kg i.v.) induced bradycardia is recorded in pentobarbital anesthetized animals."}}, "note": "Where a name gives a salt, the structure may show the parent alone.", "data": [{"smiles": "COc1cc(N)c(Cl)cc1C(=O)NC[C@@H]1CCN2CCC[C@@H]12", "note": "(relative stereo) [Example 5, cis-4-amino-5-chloro-N-[(hexahydro-1H-pyrrolizin-1-yl)methyl]-2-methoxybenzamide,dihydrochloride]", "values": [{"measurement": "% INHIBITION OF CISPLATIN EMESIS", "setting": "beagle dogs; 0.3 mg/kg iv", "result": 27.0, "unit": "%"}, {"measurement": "% INHIBITION OF CISPLATIN EMESIS", "setting": "beagle dogs; 3.0 mg/kg iv", "result": 95.5, "unit": "%"}, {"measurement": "% INCREASE IN GASTRIC EMPTYING", "setting": "rats; 1.0 mg/kg ip", "result": 2.5, "unit": "%"}, {"measurement": "% INCREASE IN GASTRIC EMPTYING", "setting": "rats; 3.0 mg/kg ip", "result": 9.4, "unit": "%"}, {"measurement": "% INCREASE IN GASTRIC EMPTYING", "setting": "rats; 10.0 mg/kg ip", "result": 15.8, "unit": "%"}, {"measurement": "RESPONSE INDEX", "setting": "gastric antrum; 0.3 mg/kg iv", "result": 0.37}, {"measurement": "RESPONSE INDEX", "setting": "gastric antrum; 1.0 mg/kg iv", "result": 0.49}, {"measurement": "RESPONSE INDEX", "setting": "gastric antrum; 3.0 mg/kg iv", "result": 0.58}, {"measurement": "% INHIBITION", "setting": "5-HT3; 5.0 mg/kg ip", "result": 47, "unit": "%"}, {"measurement": "% INHIBITION", "setting": "5-HT3; 10.0 mg/kg ip", "result": 85, "unit": "%"}]}, {"smiles": "COc1cc(N)c(Cl)cc1C(=O)NC[C@H]1CCN2CCC[C@@H]12", "note": "(relative stereo) [Example 7, trans-4-amino-5-chloro-N-[(hexahydro-1H-pyrrolizin-1-yl)-methyl]-2-methoxybenzamide,dihydrochloride]", "values": [{"measurement": "% INCREASE IN GASTRIC EMPTYING", "setting": "rats; 1.0 mg/kg ip", "result": 3.1, "unit": "%"}, {"measurement": "% INCREASE IN GASTRIC EMPTYING", "setting": "rats; 3.0 mg/kg ip", "result": 0.9, "unit": "%"}, {"measurement": "% INCREASE IN GASTRIC EMPTYING", "setting": "rats; 10.0 mg/kg ip", "result": -6.9, "unit": "%"}, {"measurement": "RESPONSE INDEX", "setting": "gastric antrum; 3.0 mg/kg iv", "result": 0.40}, {"measurement": "% INHIBITION", "setting": "5-HT3; 2.5 mg/kg ip", "result": 55, "unit": "%"}, {"measurement": "% INHIBITION", "setting": "5-HT3; 5.0 mg/kg ip", "result": 61, "unit": "%"}, {"measurement": "% INHIBITION", "setting": "5-HT3; 10.0 mg/kg ip", "result": 86, "unit": "%"}]}, {"smiles": "COc1cc(N)c(Cl)cc1C(=O)NC1CCN(CCCOc2ccc(F)cc2)CC1OC", "note": "(centres unmarked) [Cisapride, cisapride]", "values": [{"measurement": "% INHIBITION OF CISPLATIN EMESIS", "setting": "beagle dogs; 0.3 mg/kg iv", "result": -2.3, "unit": "%"}, {"measurement": "% INHIBITION OF CISPLATIN EMESIS", "setting": "beagle dogs; 1.0 mg/kg iv", "result": 91.0, "unit": "%"}, {"measurement": "% INCREASE IN GASTRIC EMPTYING", "setting": "rats; 1.0 mg/kg ip", "result": 9.8, "unit": "%"}, {"measurement": "% INCREASE IN GASTRIC EMPTYING", "setting": "rats; 3.0 mg/kg ip", "result": 15.4, "unit": "%"}, {"measurement": "% INCREASE IN GASTRIC EMPTYING", "setting": "rats; 10.0 mg/kg ip", "result": 25.0, "unit": "%"}, {"measurement": "RESPONSE INDEX", "setting": "gastric antrum; 0.1 mg/kg iv", "result": 0.45}, {"measurement": "RESPONSE INDEX", "setting": "gastric antrum; 0.3 mg/kg iv", "result": 0.54}, {"measurement": "RESPONSE INDEX", "setting": "gastric antrum; 1.0 mg/kg iv", "result": 0.41}, {"measurement": "% INHIBITION", "setting": "5-HT3; 2.5 mg/kg ip", "result": 49, "unit": "%"}, {"measurement": "% INHIBITION", "setting": "5-HT3; 5.0 mg/kg ip", "result": 54, "unit": "%"}, {"measurement": "% INHIBITION", "setting": "5-HT3; 10.0 mg/kg ip", "result": 78, "unit": "%"}]}, {"smiles": "CN1C2CCC1CC(OC(=O)c1c[nH]c3ccccc13)C2", "note": "(centres unmarked) [ICS 205-930]", "values": [{"measurement": "% INHIBITION OF CISPLATIN EMESIS", "setting": "beagle dogs; .005 mg/kg iv", "result": 60.8, "unit": "%"}, {"measurement": "% INHIBITION OF CISPLATIN EMESIS", "setting": "beagle dogs; .05 mg/kg iv", "result": 100.0, "unit": "%"}]}, {"smiles": "CCN(CC)CCNC(=O)c1cc(Cl)c(N)cc1OC", "note": "[Metoclopramide, metoclopramide]", "values": [{"measurement": "% INHIBITION OF CISPLATIN EMESIS", "setting": "beagle dogs; 0.3 mg/kg iv", "result": 19.5, "unit": "%"}, {"measurement": "% INHIBITION OF CISPLATIN EMESIS", "setting": "beagle dogs; 3.0 mg/kg iv", "result": 99.9, "unit": "%"}, {"measurement": "% INCREASE IN GASTRIC EMPTYING", "setting": "rats; 1.0 mg/kg ip", "result": 2.6, "unit": "%"}, {"measurement": "% INCREASE IN GASTRIC EMPTYING", "setting": "rats; 3.0 mg/kg ip", "result": 11.2, "unit": "%"}, {"measurement": "% INCREASE IN GASTRIC EMPTYING", "setting": "rats; 10.0 mg/kg ip", "result": 34.1, "unit": "%"}, {"measurement": "RESPONSE INDEX", "setting": "gastric antrum; 1.0 mg/kg iv", "result": 0.23}, {"measurement": "RESPONSE INDEX", "setting": "gastric antrum; 3.0 mg/kg iv", "result": 0.65}, {"measurement": "% INHIBITION", "setting": "5-HT3; 10.0 mg/kg ip", "result": 40, "unit": "%"}]}]}
